Test results published in patent US8501746B2, “Organic compounds” (Xenon Pharmaceuticals Inc., priority 2006, dated 2013).

| melting point | Compound |
| --- | --- |
| 150 °C (dec.) | O=C(NCc1ccccc1)c1csc(-n2ccc(O)cc2=O)c1 [Example 7.3, N-Benzyl-5-(4-hydroxy-2-oxopyridin-1(2H)-yl)thiophene-3-carboxamide] |
| 98 °C (dec.) | Cc1cc(-n2ccc(O)cc2=O)sc1C(=O)NCc1ccccc1 [Example 7.4, N-Benzyl-5-(4-hydroxy-2-oxopyridin-1(2H)-yl)-3-methylthiophene-2-carboxamide] |
| 95 °C (dec.) | Cc1cc(-n2ccc(O)cc2=O)sc1C(=O)NCc1ccc(F)cc1 [Example 7.7, N-(4-Fluorobenzyl)-5-(4-hydroxy-2-oxopyridin-1(2H)-yl)-3-methylthiophene-2-carboxamide] |
| 140 to 142 °C | Cc1cc(-n2ccc(O)cc2=O)sc1C(=O)NCc1cccc(F)c1 [Example 7.8, N-(3-Fluorobenzyl)-5-(4-hydroxy-2-oxopyridin-1(2H)-yl)-3-methylthiophene-2-carboxamide] |
| 183 to 184 °C | CCNC(=O)c1sc(-n2ccc(O)cc2=O)cc1C [Example 7.9, N-Ethyl-5-(4-hydroxy-2-oxopyridin-1(2H)-yl)-3-methylthiophene-2-carboxamide] |
| 238 to 240 °C | Cc1nc(-n2ccc(O)cc2=O)sc1C(=O)NCc1cccnc1 [Example 7.10, 2-(4-Hydroxy-2-oxopyridin-1(2H)-yl)-4-methyl-N-(pyridin-3-ylmethyl)thiazole-5-carboxamide] |
| 153 to 154 °C | Cc1cc(-n2ccc(OCc3ccccc3)cc2=O)sc1C(=O)NCc1ccccc1 [Example 8.1, N-Benzyl-5-(4-(benzyloxy)-2-oxopyridin-1(2H)-yl)-3-methylthiophene-2-carboxamide] |
| 225 to 227 °C | Cc1cc(-n2ccc(OCc3ccc(C(F)(F)F)cc3)cc2=O)sc1C(=O)NCc1ccccc1 [Example 9.1, N-Benzyl-3-methyl-5-(2-oxo-4-(4-(trifluoromethyl)benzyloxy)pyridin-1(2H)-yl)thiophene-2-carboxamide] |
| 195 to 197 °C | Cc1cc(-n2ccc(OCc3ccc(F)cc3)cc2=O)sc1C(=O)NCc1ccccc1 [Example 9.2, N-Benzyl-5-(4-(4-fluorobenzyloxy)-2-oxopyridin-1(2H)-yl)-3-methylthiophene-2-carboxamide] |
| 178 to 180 °C | Cc1cc(-n2ccc(OCc3ccc(OC(F)F)cc3)cc2=O)sc1C(=O)NCc1ccccc1 [Example 9.3, N-Benzyl-5-(4-(4-(difluoromethoxy)benzyloxy)-2-oxopyridin-1(2H)-yl)-3-methylthiophene-2-carboxamide] |
| 159 to 160 °C | Cc1cc(-n2ccc(OCCc3ccccc3)cc2=O)sc1C(=O)NCc1ccccc1 [Example 9.4, N-Benzyl-3-methyl-5-(2-oxo-4-phenethoxypyridin-1(2H)-yl)thiophene-2-carboxamide] |
| 175 to 177 °C | Cc1cc(-n2ccc(OCC3CC3)cc2=O)sc1C(=O)NCc1ccccc1 [Example 9.5, N-Benzyl-5-(4-(cyclopropylmethoxy)-2-oxopyridin-1(2H)-yl)-3-methylthiophene-2-carboxamide] |
| 214 to 216 °C | Cc1nc(-n2ccc(OCc3ccc(C(F)(F)F)o3)cc2=O)sc1C(=O)NCc1ccccc1 [Example 9.7] |
| 278 to 280 °C | Cc1nc(-n2ccc(OCc3ccc(C(F)(F)F)cc3)cc2=O)sc1C(=O)NCc1ccccc1 [Example 9.8, N-Benzyl-4-methyl-2-(2-oxo-4-(4-(trifluoromethyl)benzyloxy)pyridin-1(2H)-yl)thiazole-5-carboxamide] |
| 242 to 244 °C | Cc1nc(-n2ccc(OCc3ccc(OC(F)F)cc3)cc2=O)sc1C(=O)NCc1ccc(F)cc1 [Example 9.9, 2-(4-(4-(Difluoromethoxy)benzyloxy)-2-oxopyridin-1(2H)-yl)-N-(4-fluorobenzyl)-4-methylthiazole-5-carboxamide] |
| 196 to 198 °C | Cc1nc(-n2ccc(OCC3CCCC3)cc2=O)sc1C(=O)NCc1ccccc1 [Example 9.10, N-Benzyl-2-(4-(cyclopentylmethoxy)-2-oxopyridin-1(2H)-yl)-4-methylthiazole-5-carboxamide] |
| 183 to 185 °C | COc1ccn(-c2nc(C)c(C(=O)NCc3ccc(F)c(F)c3)s2)c(=O)c1 [Example 9.11, N-(3,4-Difluorobenzyl)-2-(4-methoxy-2-oxopyridin-1(2H)-yl)-4-methylthiazole-5-carboxamide] |
| 181 to 183 °C | Cc1nc(-n2ccc(OCC3CCCO3)cc2=O)sc1C(=O)NCc1ccccc1 (centres unmarked) [Example 9.12, N-Benzyl-4-methyl-2-(2-oxo-4-((tetrahydrofuran-2-yl)methoxy)pyridin-1(2H)-yl)thiazole-5-carboxamide] |
| 135 to 136 °C | CCOC(=O)c1[nH]c(-n2ccc(OCc3ccccc3)cc2=O)nc1C [Example 12.2, Ethyl 2-(4-(benzyloxy)-2-oxopyridin-1(2H)-yl)-4-methyl-1H-imidazole-5-carboxylate] |
| 261 to 263 °C | Cc1nc(-n2ccc(OCc3ccc(C(F)(F)F)o3)cc2=O)sc1C(=O)O [Example 13.6] |
| > 300 °C | Cc1nc(-n2ccc(OCc3ccc(F)cc3)cc2=O)sc1C(=O)O [Example 13.7, 2-(4-(4-Fluorobenzyloxy)-2-oxopyridin-1(2H)-yl)-4-methylthiazole-5-carboxylic acid] |
| 163 to 165 °C | CCOC(=O)c1sc(-n2ccc(OC)cc2=O)nc1C [Example 15.1, Ethyl 2-(4-Methoxy-2-oxopyridin-1(2H)-yl)-4-methylthiazole-5-carboxylate] |
| 188 to 190 °C | CCOC(=O)c1sc(-n2ccc(OCCC3CC3)cc2=O)nc1C [Example 15.2, Ethyl 2-(4-(2-Cyclopropylethoxy)-2-oxopyridin-1(2H)-yl)-4-methylthiazole-5-carboxylate] |
| 214 to 217 °C | CCOC(=O)c1sc(-n2ccc(OCc3ccc(F)cc3)cc2=O)nc1C [Example 17.1, Ethyl 2-(4-(4-Fluorobenzyloxy)-2-oxopyridin-1(2H)-yl)-4-methylthiazole-5-carboxylate] |

More lines, now with the values behind:

| Compound | melting point |
| --- | --- |
| Cc1cc(-n2ccc(OCc3ccccc3)cc2=O)sc1C(=O)NCc1cccc(F)c1 [Example 3.22, 5-(4-(Benzyloxy)-2-oxopyridin-1(2H)-yl)-N-(3-fluorobenzyl)-3-methylthiophene-2-carboxamide] | 140 to 141 °C |
| CCNC(=O)c1sc(-n2ccc(OCc3ccccc3)cc2=O)cc1C [Example 3.23, 5-(4-(Benzyloxy)-2-oxopyridin-1(2H)-yl)-N-ethyl-3-methylthiophene-2-carboxamide] | 158 to 160 °C |
| Cc1nc(-n2ccc(C(F)(F)F)cc2=O)sc1C(=O)NCc1cccnc1 [Example 3.24, 4-Methyl-2-(2-oxo-4-(trifluoromethyl)pyridin-1(2H)-yl)-N-(pyridin-3-ylmethyl)thiazole-5-carboxamide] | 172 to 173 °C |
| Cc1nc(-n2ccc(OCc3ccccc3)cc2=O)sc1C(=O)NCc1cccnc1 [Example 3.25, 2-(4-(Benzyloxy)-2-oxopyridin-1(2H)-yl)-4-methyl-N-(pyridin-3-ylmethyl)thiazole-5-carboxamide] | 208 to 209 °C |
| Cc1nc(-n2ccc(NC(=O)c3ccccc3)cc2=O)sc1C(=O)NCc1ccccc1 [Example 4, 2-(4-Benzamido-2-oxopyridin-1(2H)-yl)-N-benzyl-4-methylthiazole-5-carboxamide] | 246 to 248 °C |
| Cc1nc(-n2ccc(NCc3ccccc3)cc2=O)sc1C(=O)NCc1ccccc1 [Example 5, N-benzyl-2-(4-(benzylamino)-2-oxopyridin-1(2H)-yl)-4-methylthiazole-5-carboxamide] | 253 to 255 °C |
| Cc1nc(-n2ccc(OCc3cccnc3)cc2=O)sc1C(=O)NCc1ccccc1 [Example 6, N-Benzyl-4-methyl-2-(2-oxo-4-(pyridin-3-ylmethoxy)pyridin-1(2H)-yl)thiazole-5-carboxamide] | 214 to 216 °C |
| Cc1nc(-n2ccc(OCc3ccccn3)cc2=O)sc1C(=O)NCc1ccccc1 [Example 6.1, N-Benzyl-4-methyl-2-(2-oxo-4-(pyridin-2-ylmethoxy)pyridin-1(2H)-yl)thiazole-5-carboxamide] | 202 to 205 °C |
| Cc1nc(-n2cccc(O)c2=O)sc1C(=O)NCc1ccccc1 [Example 7, N-Benzyl-2-(3-hydroxy-2-oxopyridin-1(2H)-yl)-4-methylthiazole-5-carboxamide] | 225 to 228 °C |
| O=C(NCc1ccccc1)c1csc(-n2ccc(OCc3ccccc3)cc2=O)c1 [Example 8, N-Benzyl-5-(4-(benzyloxy)-2-oxopyridin-1(2H)-yl)thiophene-3-carboxamide] | 162 to 163 °C |
| Cc1cc(-n2ccc(OCCC3CC3)cc2=O)sc1C(=O)NCc1ccccc1 [Example 9, N-Benzyl-5-(4-(2-cyclopropylethoxy)-2-oxopyridin-1(2H)-yl)-3-methylthiophene-2-carboxamide] | 134 to 136 °C |
| Cc1nc(-n2ccc(-c3ccc(Cl)cc3)cc2=O)sc1C(=O)NCc1ccccc1 [Example 10, N-Benzyl-2-(4-(4-chlorophenyl)-2-oxopyridin-1(2H)-yl)-4-methylthiazole-5-carboxamide] | 265 to 267 °C |
| CCOC(=O)c1sc(-n2ccc(O)cc2=O)nc1C [Example 14, Ethyl 2-(4-Hydroxy-2-oxopyridin-1(2H)-yl)-4-methylthiazole-5-carboxylate] | 270 to 273 °C |
| CCOC(=O)c1sc(-n2ccc(OCC3CC3)cc2=O)nc1C [Example 15, Ethyl 2-(4-(Cyclopropylmethoxy)-2-oxopyridin-1(2H)-yl)-4-methylthiazole-5-carboxylate] | 180 to 183 °C |
| CCOC(=O)c1sc(-n2ccc(OCc3ccc(C(F)(F)F)o3)cc2=O)nc1C [Example 17] | 196 to 198 °C |
| Cc1nc(-n2ccc(Oc3ccccc3)cc2=O)sc1C(=O)NCc1ccccc1 [Example 18, N-Benzyl-4-methyl-2-(2-oxo-4-phenoxypyridin-1(2H)-yl)thiazole-5-carboxamide] | 67 to 70 °C |
| Cc1nc(-n2ccc(CCc3ccccc3)cc2=O)sc1C(=O)NCc1ccccc1 [Example 19, N-benzyl-4-methyl-2-(2-oxo-4-phenethylpyridine-1(2H)-yl)thiazole-5-carboxamide] | 149 to 150 °C |
